Source: patent US4211764A, “Gastric secretion stimulation with 2-amino-5-(2-aminoethyl)-1,3,4-thiadiozole” (priority 1978, dated 1980)
“Also recorded” adds a separate entry of the source.

Tests used:
dog's stomach = assay: Gastric secretion in dogs, administration per os; assay type: in vivo
Experimental: Chronic experiments were performed on male dogs weighing 20 to 25 kg and having a gastric fistula; prior to experiments, the animals were starved for 18 hours.

arterial pressure [1] = assay: Arterial pressure in anesthetized cats
Experimental: These experiments were performed on 11 cats weighing 2.5 to 4.0 kg and anesthetized with urethane-chlorazol mixture containing 60 mg/kg of chlorazol and 600 mg/kg of urethane. The arterial pressure was measured in the common carotid artery with the aid of a mercury pressure gauge.

H1 -receptors = target: T1, H1 -receptors (Cavia porcellus, UniProt P31389); assay: Contraction of isolated ileum; settings: guinea pig ileum; read-out: pD2 value in relation to H1 -receptors (converted)
T1 construct: from tissue; host or cells: isolated guinea pig ileum

H2 -receptors [2] = target: T2, H2 -receptors (Cavia porcellus, UniProt P47747); assay: Heart rate of isolated auricles; settings: isolated guinea pig auricles; read-out: pD2 value, H2 -receptors (heart rate) (converted)
T2 construct: from tissue; host or cells: isolated guinea pig auricles (atria)
Experimental: Changes in the heart rate were measured, dose-response curves were plotted, and pD2 values were calculated.

Acute toxicity, rats = settings: rat, in vivo, ip; male rats, 200-250 g, i/p
Excerpt: (§1) The results of the tests are generalized in Table 1.

[3] = Acute toxicity, guinea pigs; settings: guinea pig, in vivo, male guinea pigs
Excerpt: as §1

Male guinea pigs = assay: Chronic toxicity, daily intravenous injections in guinea pigs; assay type: in vivo
Excerpt: Male guinea pigs weighing 200-250 g
1. Daily intravenous injections of thidazine

Bulbar Conjunctiva = test system: Bulbar Conjunctiva; design: species or system guinea pigs, rabbits; settings: in vivo
Excerpt: C. Irritant Action of 1-5% Solutions On
intramuscular injection

Respiration = assay: Effects on depth and rate of respiration; assay type: in vivo, rabbits and cats
Excerpt: E. Effects on Depth and Rate of
Respiration (rabbits and cats)

male dogs = assay: Chronic toxicity, dogs per os; assay type: in vivo; settings: for Bilirubin content / Glutamic-alanine transaminase content: 200 mg per os daily, Test
Experimental: Three male dogs weighing 22 to 25 kg
1. Administration per os, 200 mg
(in gelatin capsules), admini-
stration performed once a day
during 10 days, one animal being

[4] = test system: gastric secretion of patients of middle age group; assay: Clinical test: effects of maximum doses upon gastric secretion of patients; assay type: in vivo, human; settings: 2mg/kg; for Gastric Juice, Δ% / HCl Concentration, Δ% / Hourly HCl output, Δ%: 2nd versus 1st hour
Excerpt: (§2) Special attention was paid to side effects and the reproductibility of the secretory response after repeated administrations of the drug.

[5] = test system: gastric secretion of patients; assay: Clinical comparison of thidazine with simple histamine test; assay type: in vivo, human; settings: 20 patients; thidazine 1.5 mg/kg parenteral, histamine 0.01 mg/kg; >0.05
Excerpt: as §2

total acidity = assay: Clinical reproducibility of secretory response (total acidity); assay type: in vivo, human
Excerpt: as §2
Reproducibility of Secretory Response to Introduction
of Thidazine and Histamine with Reference to Total
Acidity Values (each group of patients includes 10 persons)
^(x) Percentage of difference is the relationship of the difference
between the total acidity values registered in the first and second tests
of a patient to the greater of these values.

[6] = test system: gastric secretion of patients with duodenal ulceration; assay: Clinical comparison in patients with duodenal ulceration; assay type: in vivo, human
Excerpt: as §2
Histamine and Pentagastrin Upon Main Gastric Secretion
Characteristics of Patients With Duodenal Ulceration

H2 -receptors [7] = target: H2 -receptors (Rattus norvegicus, UniProt P25102); settings: uterus horn
Experimental: Contractions of an isolated horn of uterus of a rat due to the effect of acetylcholine in a concentration of 1.10^-6 M were recorded on a paper tape.

arterial pressure [8] = assay: Arterial pressure in rabbits; settings: intravenous, thidazine 0.1 mg/kg, equimolar doses of histamine and histalog
Experimental: In a series of experiments of 18 rabbits weighing 2.5 to 3.5 kg, each having the common carotid artery in a cutaneous flap, the preparations were injected intravenously.

[9] = 20 mg/kg i/v daily 10 days, beginning of experiment
[10] = 20 mg/kg i/v daily 10 days, end of experiment
[11] = 0.1-0.2 mg/kg i/m, Control Period
[12] = 0.1-0.2 mg/kg i/v, Control Period
[13] = hypodermic, 1st hour (basal secretion)
[14] = hypodermic, 2nd hour (response to drug)
[15] = per os, 1st hour (basal secretion)
[16] = per os, 2nd hour (response to drug)

T1 sequence (P31389 whole entry): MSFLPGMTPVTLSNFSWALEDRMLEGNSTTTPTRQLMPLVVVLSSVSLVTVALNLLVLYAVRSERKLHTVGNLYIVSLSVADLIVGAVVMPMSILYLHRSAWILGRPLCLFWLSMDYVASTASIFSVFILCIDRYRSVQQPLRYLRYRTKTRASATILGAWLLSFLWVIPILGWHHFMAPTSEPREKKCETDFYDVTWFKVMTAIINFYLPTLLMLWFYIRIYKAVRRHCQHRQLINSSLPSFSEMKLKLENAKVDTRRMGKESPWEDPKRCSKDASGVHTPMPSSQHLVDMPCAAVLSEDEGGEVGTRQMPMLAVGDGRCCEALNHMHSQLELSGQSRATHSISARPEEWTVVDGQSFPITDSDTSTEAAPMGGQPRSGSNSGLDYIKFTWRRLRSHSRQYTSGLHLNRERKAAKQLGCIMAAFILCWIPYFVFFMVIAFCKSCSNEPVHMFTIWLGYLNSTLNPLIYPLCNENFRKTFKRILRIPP
H2 -receptors (Rattus norvegicus, UniProt P25102), sequence (P25102 whole entry): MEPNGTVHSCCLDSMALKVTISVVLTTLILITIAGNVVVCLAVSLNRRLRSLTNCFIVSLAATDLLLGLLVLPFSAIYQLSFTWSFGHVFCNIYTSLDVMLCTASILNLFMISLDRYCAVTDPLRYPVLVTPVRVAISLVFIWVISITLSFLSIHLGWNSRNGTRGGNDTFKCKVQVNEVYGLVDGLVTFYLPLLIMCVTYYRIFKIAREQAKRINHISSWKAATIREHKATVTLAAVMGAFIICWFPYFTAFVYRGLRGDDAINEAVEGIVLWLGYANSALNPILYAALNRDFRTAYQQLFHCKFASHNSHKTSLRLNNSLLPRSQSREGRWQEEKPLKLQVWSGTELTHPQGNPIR
T2 sequence (P47747 whole entry): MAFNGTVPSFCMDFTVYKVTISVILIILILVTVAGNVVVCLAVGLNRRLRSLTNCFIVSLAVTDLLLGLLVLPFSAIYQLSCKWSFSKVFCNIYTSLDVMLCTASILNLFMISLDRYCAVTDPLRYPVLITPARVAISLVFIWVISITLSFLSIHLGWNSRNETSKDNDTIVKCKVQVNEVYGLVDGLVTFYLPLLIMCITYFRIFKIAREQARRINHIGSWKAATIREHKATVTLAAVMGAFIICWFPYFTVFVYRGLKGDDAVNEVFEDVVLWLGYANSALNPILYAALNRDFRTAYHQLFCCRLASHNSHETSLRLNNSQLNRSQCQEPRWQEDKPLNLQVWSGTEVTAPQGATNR

NCCc1nnc(N)s1 [Thidazine, 2-amino-5-(2-aminoethyl)-1,3,4-thiadiazole]
maximum level of gastric secretion (dog's stomach; per os, 100 mg per head): 26 mEq per hour | gastric secretion after administration per os (dog's stomach; thidazine 100 mg per head (parenterally and per os), histamine 10 and 20 mg, histalog 50 and 100 mg): can produce a maximum secretory effect when administered both parenterally and per os; also recorded: can produce a maximum secretion in a dog's stomach when administered both parenterally and perorally | reduction of arterial pressure (arterial pressure [1]; anesthetized cats, 0.1 mg/kg intravenous): 30 mm of mercury | hypotensive reaction (arterial pressure [1]; cats, doses below 0.1 mg/kg intravenous): No hypotensive reaction was observed | EC50 (H1 -receptors): 398 µM | EC50 (H2 -receptors [2]): 7.94 µM | LD50 (Acute toxicity, rats): 1 mg/kg | LD50 ([3]; ip, 280-350 g, i/p): 360 mg/kg | LD50 ([3]; iv, 200-250 g, i/v): 190 mg/kg | Coagulability of Blood (Male guinea pigs; 20 mg/kg i/v daily 10 days): No changes | Differential Blood Count (Male guinea pigs; 20 mg/kg i/v daily 10 days): No significant changes | ECG at beginning and end of experiment (Male guinea pigs; 20 mg/kg i/v daily 10 days): No significant changes | Average weight in test group (Male guinea pigs; 20 mg/kg i/v daily 10 days, Control Period (beginning)): 220.0 ± 58 g | Average weight in test group (Male guinea pigs; 20 mg/kg i/v daily 10 days, Test Period (end)): 252.3 ± 50 g | ESR, test group (Male guinea pigs; [9]): 2 mm | Erythrocytes, test group (Male guinea pigs; [9]): 3.75 ± 0.1 mln. | Hemoglobin, test group (Male guinea pigs; [9]): 11.8 ± 0.1% | Leukocytes, test group (Male guinea pigs; [9]): 11360 ± 900 thous. | ESR, test group (Male guinea pigs; [10]): 2 mm | Erythrocytes, test group (Male guinea pigs; [10]): 3.93 ± 0.1 mln. | Hemoglobin, test group (Male guinea pigs; [10]): 12.4 ± 0.3% | Leukocytes, test group (Male guinea pigs; [10]): 9500 ± 835 thous. | effect upon growth and development and blood composition (Male guinea pigs; two animal species, 1/10 LD50): no significant effect | pathological changes in the vital organs (Male guinea pigs; two animal species, 1/10 LD50): causes no pathological changes in the vital organs | Irritant Action (Bulbar Conjunctiva): Negative reaction | Respiration amplitude (Respiration; 1 mg/kg i/v, Control Period): 10.0 ± 0.8 mm | Respiration rate per minute (Respiration; 1 mg/kg i/v, Control Period): 120 ± 10.0 per minute | Respiration amplitude (Respiration; 1 mg/kg i/v, Test Period): 14.0 ± 0.4 mm | Respiration rate per minute (Respiration; 1 mg/kg i/v, Test Period): 85.0 ± 6.0 per minute | Respiration amplitude (Respiration; 2 mg/kg i/v, Control Period): 110.0 ± 7.0 mm | Respiration rate per minute (Respiration; 2 mg/kg i/v, Control Period): 100.0 ± 8.0 per minute | Respiration amplitude (Respiration; 2 mg/kg i/v, Test Period): 140 ± 20.0 mm | Respiration rate per minute (Respiration; 2 mg/kg i/v, Test Period): 85.0 ± 10.0 per minute | Respiration amplitude (Respiration; [11]): 160.0 ± 6.2 mm | Respiration rate per minute (Respiration; [11]): 79.0 ± 2.0 per minute | Respiration amplitude (Respiration; 0.1-0.2 mg/kg i/m, Test Period): 160 ± 10.1 mm | Respiration rate per minute (Respiration; 0.1-0.2 mg/kg i/m, Test Period): 78.0 ± 2.3 per minute | Respiration amplitude (Respiration; [12]): 220 ± 0.3 mm | Respiration rate per minute (Respiration; [12]): 90.0 ± 0.2 per minute | Respiration amplitude (Respiration; 0.1-0.2 mg/kg i/v, Test Period): 180 ± 0.1 mm | Respiration rate per minute (Respiration; 0.1-0.2 mg/kg i/v, Test Period): 85.0 ± 0.4 per minute | Behavior, food reflexes (male dogs; 200 mg per os daily 10 days): No changes | Bilirubin content (male dogs; 5th day): 0.15 mg% | Glutamic-alanine transaminase content (male dogs; 5th day): 30 units | Bilirubin content (male dogs; 10th day): 0.15 mg% | Glutamic-alanine transaminase content (male dogs; 10th day): 32 units | Bilirubin content (male dogs; at beginning): 0.16 mg% | Glutamic-alanine transaminase content (male dogs; beginning): 30 units | Histological Examination of Internal Organs (male dogs; dog, in vivo): No microscopic changes | Urinalysis: volume, specific weight, protein, microscopy of urinary sediment (male dogs; dog, in vivo): No significant changes | Gastric Juice [4, 13]: 87.0 ml per hour | HCl Concentration [4, 13]: 43.9 milliequivalents per liter | Gastric Juice [4, 14]: 200.5 ml per hour | HCl Concentration [4, 14]: 100.8 milliequivalents per liter | Gastric Juice, Δ% ([4]; hypodermic): +130.5% | HCl Concentration, Δ% ([4]; hypodermic): +129.6% | Hourly HCl output, Δ% ([4]; hypodermic): +471.9% | Hourly HCl output ([4]; hypodermic, 11 observations, 1st hour (basal secretion)): 8.2 milliequivalents per hour | Hourly HCl output ([4]; hypodermic, 11 observations, 2nd hour (response to drug)): 18.3 milliequivalents per hour | Gastric Juice [4, 15]: 102.1 ml per hour | HCl Concentration [4, 15]: 33.3 milliequivalents per liter | Gastric Juice [4, 16]: 227.9 ml per hour | HCl Concentration [4, 16]: 103.2 milliequivalents per liter | Gastric Juice, Δ% ([4]; per os): +123% | HCl Concentration, Δ% ([4]; per os): +209.9% | Hourly HCl output, Δ% ([4]; per os): +402.3% | Hourly HCl output ([4]; per os, 13 observations, 1st hour (basal secretion)): 4.3 milliequivalents per hour | Hourly HCl output ([4]; per os, 13 observations, 2nd hour (response to drug)): 21.6 milliequivalents per hour | Free Acidity [5]: 77.0+20 units | HCl Output [5]: 12.2 ± 0.7 milliequivalents per hour | Peak HCl Output [5]: 8.9+0.3 milliequivalents | Total Acidity [5]: 90.3+22 units | % of difference (fluctuations) of total acidity, first and second tests (total acidity; 0.7 mg/kg hypodermic): 15-42% | Average difference of total acidity (total acidity; 0.7 mg/kg hypodermic): 31% | % of difference (fluctuations) of total acidity, first and second tests (total acidity; 1.5mg/kg per os): 0-22% | Average difference of total acidity (total acidity; 1.5mg/kg per os): 7.5% | Chymosin Output ([6]; 1st hour (basal secretion)): 17.3 ± 0.3 units per hour | Pepsin Output ([6]; 1st hour (basal secretion)): 4.0 ± 0.7 units per hour | Secretion, milliequivalents per hour ([6]; 1st hour (basal secretion)): 7.25 ± 0.9 Milliequivalents per hour | Chymosin Output ([6]; 2nd hour): 218.2 ± 4.0 units per hour | Pepsin Output ([6]; 2nd hour): 17.8 ± 2.3 units per hour | Secretion, milliequivalents per hour ([6]; 2nd hour): 23.9 ± 1.8 Milliequivalents per hour | Emax (H2 -receptors [7]): 15% | reduction of arterial pressure (arterial pressure [8]): 12 mm of mercury
